From ChEMBL document CHEMBL4619745, “Identification of 2-((2,3-dihydrobenzo[b][1,4]dioxin-6-yl)amino)-N-phenylpropanamides as a novel class of potent DprE1 inhibitors” (Bioorg Med Chem Lett, 2020) come the findings set out here.

In brackets after ≈: the same amount, converted by molar mass.

For assay [1], the system named is Mycobacterium tuberculosis. Description: Ratio of MIC for Mycobacterium tuberculosis H37Rv overexpressing DprE1 to MIC for Mycobacterium tuberculosis H37Rv. In kind it is functional.
Assay [2] relates to Mycobacterium tuberculosis. Description: Antimycobacterial activity against Mycobacterium tuberculosis H37Rv overexpressing DprE1. In kind it is functional.

Usually MIC stands for the lowest concentration that inhibits growth of the organism. A high value points to weaker potency. As for `CC(Nc1ccc2c(c1)OCCO2)C(=O)Nc1ccc(Br)cc1` (racemic), in assay [1], the Ratio is on record as 8. The molecule also returned an MIC in assay [2] of 62.5 µM (≈ 23.6 µg/mL).
